Measured values as given in patent publication US20140113869A1, “Gbetagamma BINDING SITE ON THE PIK3CB GENE PRODUCT AND METHODS OF USE” (Albert Einstein College of Medicine of Yeshiva University, priority 2011, published 2014).
Ends that are not written are not given here. * marks the point of attachment. Myristoyl = CCCCCCCCCCCCCC(=O)*

Key:
[1] = system: Gβγ activation of Akt (pT308-Akt) in NIH3T3 cells; test: pT308-Akt blotting in NIH3T3 cells transfected with Gβγ; assay type: cell-based; conditions: for Gβγ activation of Akt (pT308-Akt): myristoylated vs TAT-tagged vs unmodified peptide, FIG. 6B
Method: FIG. 6A-6B. (6A) NIH3T3 cells were transfected without or with Gβγ and incubated with scrambled (control) or p110β peptide. pT308-Akt was measured by blotting. (6B) Cell transfected as above were incubated with myristoylated peptide, TAT-tagged peptide, or unmodified peptide. pT308-Akt was measured by blotting.
(§1) To test the possibility that small molecules targeting the p110β-Gβγ interface could be used as therapeutics, a peptide was designed derived from the Gβγ-binding loop in p110β. having the sequence […] (SEQ ID NO:6) a scrambled version of the peptide serves as a negative control. […] The test whether the peptide could be efficacious in vivo, we created a cell permeable myristylated version of the peptide. The peptide blocked activation of Akt in cells transfected with Gβγ (FIG. 6A); the peptide's inhibitory activity required its entry into the cells, since both myristoylated and TAT-tagged peptide inhibited Gβγ activation of Akt, whereas unlabeled peptide had no effect (FIG. 6B). The myristoylated peptide blocked the formation of colonies in soft agar (FIG. 7A) and the formation of foci (FIG. 7B), both measures of transformation, in NIH3T3 cells transfected with p85/p110β.

[2] = system: p85/p110β dimers activated by Gβγ; test: In vitro activation of p85/p110β dimers by Gβγ (lipid kinase activity); assay type: biochemical; conditions: peptide 5-fold in excess of Gβγ; FIG. 5
Method: FIG. 5. Percent stimulation of p85/p110β dimers incubated without or with Gβγ in the absence or presence of 5-1Old excess peptide. Pep=p110β peptide. Scram=scrambled peptide control.
(§2) FIG. 9A-9D. Peptide inhibitors of Gβγ -mediated p110β/p85 activation are specific for p85/p110β. (9A) Myristoylated p110β peptides or SIGK peptide were preincubated with biotinylated Gβγ or 5 min, followed by addition of phage particles displaying the SIGK peptide, After a 1 h incubation at room temperature, Anti-M-13 phase monoclonal antibody was added followed by addition of Streptavidin coated Alphascreen donor beads and protein A coated Alphascreen acceptor beads. After a 2 h incubation, the Alphascreen signal was read on a Perkin Elmer Envision Multilabel Plate reader. […] Bound proteins were analyzed by western blot. […] The cells were fixed and the number of GFP punctae per cell was counted using a Nikon Eclipse 400 microscope with 60× 1.4 N.A. optics. […]

p110β binding to Rab5 = biological target: T1, p110β binding to Rab5 (Homo sapiens, UniProt P42338); test: p110β binding to immobilized GST-Rab5 (pull-down from HEK293T lysates); conditions: FIG. 9E
T1 construct: expressed in transfected cells; host or cells: HEK293T (p85α and p110β)
T1 sequence (P42338 whole entry): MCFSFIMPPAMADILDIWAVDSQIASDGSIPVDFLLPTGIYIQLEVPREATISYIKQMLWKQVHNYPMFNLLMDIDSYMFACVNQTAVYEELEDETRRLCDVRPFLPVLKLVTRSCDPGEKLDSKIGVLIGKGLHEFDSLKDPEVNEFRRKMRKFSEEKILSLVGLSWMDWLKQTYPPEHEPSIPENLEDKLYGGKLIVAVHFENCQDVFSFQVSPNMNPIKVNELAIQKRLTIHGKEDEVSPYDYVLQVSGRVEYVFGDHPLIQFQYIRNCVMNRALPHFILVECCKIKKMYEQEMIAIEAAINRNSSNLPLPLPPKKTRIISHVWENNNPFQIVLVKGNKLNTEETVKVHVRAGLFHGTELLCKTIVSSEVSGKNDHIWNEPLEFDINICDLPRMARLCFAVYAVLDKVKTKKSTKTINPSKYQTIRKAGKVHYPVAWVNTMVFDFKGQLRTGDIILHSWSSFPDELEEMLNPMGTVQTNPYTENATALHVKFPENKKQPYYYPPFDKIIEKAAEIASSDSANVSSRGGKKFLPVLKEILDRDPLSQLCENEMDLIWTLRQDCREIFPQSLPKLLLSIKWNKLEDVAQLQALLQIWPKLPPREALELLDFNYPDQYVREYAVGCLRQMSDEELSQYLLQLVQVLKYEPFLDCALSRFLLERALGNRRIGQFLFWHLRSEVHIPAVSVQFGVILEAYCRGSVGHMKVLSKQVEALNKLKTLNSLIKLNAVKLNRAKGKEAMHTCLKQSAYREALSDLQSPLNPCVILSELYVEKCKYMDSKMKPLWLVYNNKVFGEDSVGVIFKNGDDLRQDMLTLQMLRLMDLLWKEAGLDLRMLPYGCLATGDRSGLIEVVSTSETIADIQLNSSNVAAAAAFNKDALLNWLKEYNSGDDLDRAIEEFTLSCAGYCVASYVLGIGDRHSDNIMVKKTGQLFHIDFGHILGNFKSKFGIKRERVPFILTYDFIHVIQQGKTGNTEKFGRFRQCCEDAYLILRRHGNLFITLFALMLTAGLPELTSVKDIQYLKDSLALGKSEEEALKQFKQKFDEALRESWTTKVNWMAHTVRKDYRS
Method: as §2

[3] = system: NIH3T3 cells transfected with p85/p110β; test: Colony formation in soft agar; assay type: cell-based; conditions: 30 μM peptide; FIG. 7A
Method: (§3) FIG. 7A-7B. (7A). NIH3T3 cells were transfected without or with p85/p110β and incubated without or with 30 μM p110β peptide or scrambled control peptide. Colony formation in soft agar by cells transfected and treated with peptide as above. (7B). Foci were measured after 2 weeks.
as §1

[4] = system: recombinant adenylyl cyclase; test: Synergistic activation of adenylyl cyclase by Gβγ and Gαs in Sf9 cell membranes; assay type: biochemical; conditions: 30 μM peptide; 20 nM Gsα, 20 nM Gβγ; FIG. 9D
[5] = system: NIH3T3 cells transfected with p110β/p85; test: Wound healing (wound closure) migration assay; assay type: cell-based; conditions: 30 μM peptide; wound closure after 24h; FIG. 8
Method: FIG. 8. NIH3T3 cells were transfected without or with p85/p110β. Confluent monolayers were scratched with a pipette tip, and wound closure after 24h was measured in the absence or presence of 30 μM p110β peptide or scrambled control peptide
as §1

Gβγ = test: Alphascreen competition with phage-displayed SIGK peptide for binding to biotinylated Gβγ; conditions: FIG. 9A
Method: as §2

Class IB PI3K p101/p110γ = test: Gβγ-dependent activation of p101/p110γ, pT308-Akt western blot in HEK293E cells; assay type: cell-based; conditions: FIG. 9C
Method: as §2

p110β = p110β expression in peptide-treated transfected cells; assay type: cell-based; conditions: FIG. 7
Method: as §3

[6] = system: HEK293A cells expressing GFP-LC3; test: p110β-dependent induction of autophagy, GFP-LC3 punctae in HEK293A cells; assay type: cell-based; conditions: PBS containing 100 nM rapamycin, 2 h; FIG. 9F
Method: as §2

[7] = system: PC3 prostate cancer cells; test: PC-3 cell proliferation, MTS assay; assay type: cell-based; conditions: 30 μM peptide; FIG. 10A
Method: (§4) FIG. 10A-10C. Inhibition of prostate cancer cell proliferation and chemotaxis: (A) Proliferation of PC-3 cells was measured by the MTS assay in the absence or presence of 30 μM myristoylated p110β-derived peptide or scrambled peptide. (B) Proliferation assays were performed on two PTEN-null endometrial cancer cell lines (AN3CA and RL95-2) and one PTEN positive endometrial cell line (KLE) grown in the absence or presence of myristoylated p110β-derived peptide or scrambled peptide. (C) PC-3 cells chemotaxis toward 10% […] in the absence or presence of 20 μM p110β-derived peptide or scrambled peptide was measured in Boyden chambers.
(§5) Finally, the peptide was evaluated for effects on the growth of PC3 prostate cancer cells, which are known to require p110β for growth. […] Importantly, published studies have shown that kinase-dead p110β can rescue cell growth in cell lines where proliferation is inhibited by p110β knockout. Since currently available p110β inhibitors target the active site of p110β and act by inhibiting its kinase activity, they would not be expected to suppress the growth of cells that depend on p110β for growth. In contrast, the p110β peptide described here inhibits p110β by a distinct mechanism, and is likely to be more efficacious at suppressing the growth of p110β-dependent prostate cancer cells than active site inhibitors.

[8] = system: NIH3T3 cells transfected with p85/p110β; test: Foci formation; assay type: cell-based; conditions: 30 μM peptide; foci measured after 2 weeks; FIG. 7B
Method: as §3, §1

PC3 cells = test: PC-3 chemotaxis in Boyden chambers; assay type: cell-based; conditions: 20 μM peptide; toward 10% PBS; FIG. 10C
Method: as §4, §5

| Substance | Gβγ activation of Akt (pT308-Akt) [1] | activation of p110β by Gβγ [2] | p110β binding to Rab5 (p110β binding to Rab5) | activation of Akt in cells transfected with Gβγ (pT308-Akt) ([1]; NIH3T3 cells, FIG. 6A) | formation of colonies in soft agar [3] | synergistic activation of adenylyl cyclase by Gβγ and Gαs [4] | enhanced migration in a wound healing assay [5] | competition with the binding to Gβγ of SIGK peptide (Gβγ) | Gβγ-dependent activation of the Class IB PI3K p101/p110γ (Class IB PI3K p101/p110γ) | p110β expression (p110β) | p110β-dependent induction of autophagy [6] | PC3 cells number (growth) [7] | formation of foci [8] | PC3 cells chemotaxis toward serum (PC3 cells) |
| --- | --- | --- | --- | --- | --- | --- | --- | --- | --- | --- | --- | --- | --- | --- |
| KAAEIASSDSANVSSRGGKKFLPV (SEQ ID NO:6) [peptide] | no effect | markedly reduces | – | – | – | – | – | – | – | – | – | – | – | – |
| myristoylated peptide: cell permeable myristylated version of the p110β peptide KAAEIASSDSANVSSRGGKKFLPV (SEQ ID NO:6) (Myristoyl-KAAEIASSDSANVSSRGGKKFLPV) | inhibited | – | no effect | blocked | blocked | no effect | blocked | did not compete | no effect | did not reduce | no effect | caused a decrease | blocked | inhibited |
